In PMC3319004 (Science Translational Medicine, 2011):

What was measured:
[1] = test system: R1275Q xenografts; assay: In vivo activity of GSK1838705A in xenografts
[2] = test system: SH-SY5Y (F1174L) xenografts
[3] = test system: NBSD (F1174L) xenografts; assay: In vivo tumor growth inhibition, NBSD xenografts; design: species or system CB17 scid mice
[4] = test system: NB1643 (R1275Q) xenografts; assay: In vivo tumor growth inhibition, NB1643 xenografts; design: species or system CB17 scid mice
[5] = molecular target: F1174L ALK-TKD (Homo sapiens, UniProt Q9UM73, F1174L)
[6] = 100mg/kg/day oral gavage for 4 weeks

SMILES: CNC(=O)c1c(F)cccc1Nc1nc(Nc2cc3c(cc2OC)CCN3C(=O)CN(C)C)nc2[nH]ccc12 [GSK1838705A]
- in vivo activity in xenografts [1]: only showed significant in vivo activity against R1275Q xenografts

SMILES: C[C@@H](Oc1cc(-c2cnn(C3CCNCC3)c2)cnc1N)c1c(Cl)ccc(F)c1Cl [crizotinib]
- tumor regression [2, 6]: No tumor regression was observed
- extension of time taken to reach the study endpoint (tumor volume ≥ 1.5 cm^3) ([2]; 100mg/kg/day, average, p < 0.0001): 7.7 days
- tumor volume ([3]; 100mg/kg/day oral gavage for 4 weeks, p = 0.29): failed to reduce tumor volume
- extension of time to reach the study endpoint ([3]; 100mg/kg/day, mean, p = 0.04): 3.7 days
- tumor response [4, 6]: tumor regression within three weeks
- tumor response over the fourth week of dosing ([4]; 100mg/kg/day oral gavage, p < 0.0001): complete regression was sustained

SMILES: CN[C@@H]1C[C@H]2O[C@@](C)([C@@H]1OC)n1c3ccccc3c3c4c(c5c6ccccc6n2c5c31)C(=O)NC4 [staurosporine]
- in vitro inhibition of ALK-TKD, F1174L compared with R1275Q-mutated ALK-TKD [5]: impaired by the F1174L mutation
